One test concerns phospho-Thr69 RIIβ. Kind of test: Slice pharmacology, immunoblot of phospho-Thr69 RIIβ. The test is classed as cell-based, rat. Here is the method: (§1) Slice pharmacology was conducted as previously described ([62]). Briefly, striatum was microdissected from 350 μ coronal rat brain slices, equilibrated for 1 h, 30 °C in Kreb’s buffer with 10 μg/ml adenosine deaminase (Roche). […] Briefly, conditions included low Mg^2+ (0.5 mM) and a 30 min tissue recovery in drug-free buffer prior to harvest. Tissue was snap-frozen on dry ice. Immunoblotting was as previously described ([63]) and analyzed using Image J software (NIH). Data from immunoblots with phosphorylation-specific antibodies were normalized to total protein. Antibodies used included those for PKA regulatory subunits (BD Biosciences Cat# 610626, RRID: AB_397958; BD Biosciences Cat# 610609 RRID:AB_397943; BD Biosciences Cat# 612242 RRID:AB_399565), phospho-S114 RIIβ (BD Biosciences Cat# 612550 RRID:AB_399845), and NMDAR1 (BD Biosciences Cat# 556308 RRID:AB_396353), phospho-S845 GluA1 (PhosphoSolutions Cat# p1160-845 RRID:AB_2492128) and phospho-T34 DARPP-32 (PhosphoSolutions Cat# p1025-34 RRID:AB_2492068), and total GluA1 (Millipore Cat# 05-855R RRID:AB_1587070). Total DARPP-32 antibody was from H. Hemmings (Weill Cornell Medical College).

The test system of the next test is D1R neurons (NAc). Kind of test: Whole-cell patch-clamp recordings of D1R-expressing neurons (EPSP, LTP, AMPA/NMDA ratio). Type of test: cell-based, mouse. To be noted: NBQX 10 μM after APV 20 μM. From the text: For whole-cell recordings, Drd2-EGFP FVB mice were deeply anesthetized and transcardially perfused with ice-cold cutting artificial cerebrospinal fluid containing (in mM): 87 NaCl, 2.5 KCl, 0.5 CaCl2, 7 MgCl2, 1.25 NaH2PO4, 25 NaHCO3, 25 glucose, and 75 sucrose, bubbled with 95% O2/5% CO2. Parasagittal slices were cut transversely at 300 μm using a vibrating blade microtome (VT1200S, Leica Microsystems). Slices were transferred to normal saline solution containing (in mM): 119 NaCl, 2.5 KCl, 2.5 CaCl2, 1.3 MgCl2, 1.3 NaH2PO4, 26 NaHCO3, and 20 glucose at 32 °C for 30 min and then allowed to recover for 1 h at room temperature before recordings. Individual slices were transferred to a submerged chamber mounted on a fixed-stage upright microscope (Zeiss Axioskop FS) and continuously perfused at 30 °C with normal saline solution containing (in μM): 0 MgCl2, 50 picrotoxin, and 10 glycine. GFP-negative D1 cells were visualized by infrared differential interference contrast microscopy with a water-immersion 63X objective (0.9 NA, Zeiss). Current clamp recordings were performed with unpolished pipettes containing (in mM): 140 K-gluconate, 5 KCl, 2 MgCl2, 10 Hepes, 4 Mg-ATP, 0.3 Na-GTP, 10 Na2-creatine phosphate, 0.2 Na-EGTA, 290 to 300 mOsm, pH 7.3 (final resistance, 3-4MΩ). LTP of EPSPs was induced by HFS in control and RIIβ siP-treated D1 cells (at −70 mV). […]
(In general: In patch-clamp work, channel activity is measured electrically.)

In a further test the test system is phospho-Ser114 RIIβ. Kind of test: Slice pharmacology, immunoblot of phospho-Ser114 RIIβ. As to conditions: striatal slices, NMDA 50 μM, 5 min; *p < 0.05, n = 4. The test is classed as cell-based, rat. Here is the method:
as §1
Background: A western blot detects proteins with antibodies after separation by electrophoresis.

The test system of test [1] is cortico-ventral striatal synapses (NAc). As to the kind of experiment: Cortico-ventral striatal field recordings (fEPSP, LTP, I/O, PPR). The test is classed as cell-based, rat. To be noted: slices. Here is the method: Adult rats were anaesthetized by isoflurane (Piramal Healthcare), and brains were placed in ice-cold sucrose saline solution (4 °C) containing (in mM): 87 NaCl, 75 Sucrose, 2.5 KCl, 1.25 NaH2PO4, 7 MgCl2, 0.5 CaCl2, 25 NaHCO3, and 10 glucose (pH 7.4; saturated with […]). Parasagittal vibratome slices (350 μ thick) containing prefrontal cortex and NAc core were transferred into saline solution containing 125 NaCl, 2.5 KCl, 1.25 NaH2PO4, 1.3 MgCl2, 2 CaCl2, 25 NaHCO3, and 25 glucose (pH 7.4; saturated with […]) and maintained for 20 min at 30 °C, then transferred to room temperature (22–25 °C) and allowed 1 h recovery. […]
Extracellular recordings: fEPSPs were obtained at 25 °C in the presence of the GABAA antagonist (SR95531, Gabazine, 2 μM) and were evoked by square current pulses (0.2 ms) at 0.033 Hz with a bipolar stimulation electrode (FHC) placed at the border of corpus callosum separated by ∼300 to 500 μ from the recording electrode. […] The paired pulse ratio (PPR) paradigm was applied using different inter-stimulus intervals and PPR changes were measured as PPR = second fEPSP amplitude/first fEPSP amplitude. After recording stable baseline for at least 10 min, LTP was induced by HFS (4 trains, 100 Hz, 1 s duration, separated by 20 s). fEPSP amplitude was monitored for at least 50 min after HFS to evaluate LTP. […]

Test [2] deals with PKA. Kind of test: PKA inhibition by dephospho- vs. phospho-T69 RIIβ. The test is classed as biochemical. To be noted: in vitro, n=4. The method, then:
(§2) Rat recombinant RIIβ was derived as a C-terminal 6XHis fusion by Ni-NTA affinity purification using standard pET vector methods (Novagen). RIIβ was phosphorylated in vitro by Cdk5 or PKA using standard conditions ([55]). Cdk5/p25 was from Millipore, and PKA was from NEB. 32P incorporation was quantitated by PhosphorImager analysis. All kinetic analyses were conducted under empirically defined linear conditions. PKA activity was measured by phosphorylation of recombinant inhibitor-1 ([56]) or DARPP-32 ([14]). For phosphorylation site identification, preparatively phosphorylated RIIβ was subjected to nano-liquid chromatography tandem mass spectrometry as previously described ([57]). Digests were redissolved in 0.1% trifluoracetic acid and loaded onto a ZipTip with C18 resin (Millipore) for purification. Analysis was conducted using nanoelectrospray-QSTAR Pulsar I quadrupole time-of-flight tandem mass spectrometry (MDS Proteomics). Structural model of AKAP/RIIβ dimer interaction was based on published data of AKAP (PDB: 2HWN) ([24]) and RIIβ (PDB: 1CX4) ([58]).

The subject of test [3] is PKA. As to the kind of experiment: PKA inhibition curves for WT versus S114D RIIβ (in vitro). The test is classed as biochemical. To be noted: means ± S.E.M., n = 3. Here is the method:
as §2

The subject of another test is Cdk5. Kind of test: In vitro phosphorylation of RIIβ by Cdk5 (stoichiometry). To be noted: saturating conditions, 32P incorporation. The test is classed as biochemical. Here is the method: as §2
Test [4] deals with T1, Cdk5-dependent phosphorylation of RIIβ (Homo sapiens, UniProt Q00535).
T1 construct: purchased Millipore
T1 sequence (Q00535 whole entry): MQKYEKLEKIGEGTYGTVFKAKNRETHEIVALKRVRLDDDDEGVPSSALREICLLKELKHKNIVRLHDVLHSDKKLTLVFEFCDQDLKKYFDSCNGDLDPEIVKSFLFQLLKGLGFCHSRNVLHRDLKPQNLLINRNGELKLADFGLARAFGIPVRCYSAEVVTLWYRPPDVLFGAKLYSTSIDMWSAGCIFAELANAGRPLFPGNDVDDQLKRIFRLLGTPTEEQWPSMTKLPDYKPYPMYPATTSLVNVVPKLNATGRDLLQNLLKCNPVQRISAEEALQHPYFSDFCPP
T1 sequence (Q15078 99-307 partner limits assumed): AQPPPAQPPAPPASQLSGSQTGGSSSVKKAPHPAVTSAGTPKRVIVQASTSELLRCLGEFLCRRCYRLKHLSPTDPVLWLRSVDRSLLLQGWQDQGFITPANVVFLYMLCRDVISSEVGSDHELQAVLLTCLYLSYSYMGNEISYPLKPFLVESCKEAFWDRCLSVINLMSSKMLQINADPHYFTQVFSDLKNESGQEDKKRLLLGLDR
Kind of test: Inhibition of Cdk5-dependent phosphorylation of RIIβ in vitro by siP. The test is classed as biochemical. To be noted: means ± S.E.M. Here is the method:
as §2

The test system of a further test is rats. As to the kind of experiment: Forced swim test (FST) after intra-accumbens infusion. The test is classed as in vivo, rat. As to conditions: ketamine 2 µg in 1 µl, subanesthetic, bilateral intra-accumbal. Here is the method:
Rats were anesthetized with isoflurane and placed in a stereotaxic frame (Kopf Instruments). Bilateral cannulas (3 mm center-to-center distance, cut 8 mm below pedestal, Plastics One) were placed in NAc core (anterior-posterior to bregma +1.5 mm, medial/lateral ±1.5 mm, depth −6.8 mm). Peptides were bilaterally infused 1 week later in awake and mobile animals. Injection volume was 1 μl of peptide (100 μM in PBS, 10% DMSO, per cerebral hemisphere). Animals were allowed to recover for 1 h prior to behavioral testing. Accuracy was confirmed by infusion of methylene blue dye or direct visualization of cannula tracts postbehavioral testing.
The Porsolt FST was conducted as described previously ([64]). Briefly, one-trial forced swim was used for acute stress. Nonsurgerized rats underwent an 8 min swim in an 8-gallon transparent water filled cylinder at 24 to 25 °C. Animals recovered in their home cages for 1 h prior to brain dissection. The NAc was then microdissected for immunoblotting. […] They were then placed in a locomotor chamber, and locomotor activity was monitored for 30 min in circular donut-shaped locomotor chambers in the dark with a computer-monitored infrared photobeam system (MED-PC, Med Associates). […] The last 6 min of the test were scored for latency to immobility and time immobile, with immobility defined as the time animals spent completely motionless.

No end group written: not given here.

Consider `C=C1[C@@H](O)[C@@H]2O[C@]3(CC[C@H](/C=C/[C@@H](C)[C@@H]4CC(C)=C[C@@]5(O[C@H](C[C@@](C)(O)C(=O)O)CC[C@H]5O)O4)O3)CC[C@H]2O[C@@H]1[C@@H](O)C[C@H](C)[C@H]1O[C@@]2(CCCCO2)CC[C@H]1C` [okadaic acid], for which the “basal phospho-Thr69 RIIβ, okadaic acid 200 nM” value in the test with phospho-Thr69 RIIβ (striatal slices, 200 nM, 1 h (selective PP2A inhibition), *p < 0.05, n = 4-5) was “increased”. For the same compound, in the test with phospho-Thr69 RIIβ (striatal slices, 1 μM, 1 h (PP1 inhibition), **p < 0.01, n = 4-5), the “basal phospho-Thr69 RIIβ, okadaic acid 1 μM” value was “increased”. Further, in the test on phospho-Thr69 RIIβ (striatal slices, NMDA 25 µM, 5 min, cyclosporin A 10 µM, 1 h or okadaic acid 1 µM, 1 h, n = 4-6), the “effect on NMDA-induced reduction of phospho-Thr69 RIIβ” value is recorded as “attenuated the effect of NMDA”.
`NS(=O)(=O)c1cccc2c1c([N+](=O)[O-])cc1nc(O)c(O)nc12` [NBQX]: the “effect on EPSP responses, D1R neurons” value in the test on D1R neurons (NAc) is “ablated EPSP responses”.
`CN[C@H](CC(=O)O)C(=O)O` [NMDA, N-methyl-D-aspartate]: the “phospho-Thr69 RIIβ, NMDA” value in the test on phospho-Thr69 RIIβ (striatal slices, NMDA 50 μM, 5 min, *p < 0.05, n = 4) is “strongly reduced the phosphorylation state of Thr69”. Besides, in the test on phospho-Thr69 RIIβ (ventral striatal slices, low Mg2+, NMDA 25 μM, 5 min and/or dopamine 10 μM, 15 min, 30 min delay after treatment, n = 5 to 6), the “phospho-Thr69 RIIβ, LTP-like conditions” value is “decrease in phospho-Thr69 RIIβ”. Also, the “phospho-Ser114 RIIβ, NMDA” value in the test with phospho-Ser114 RIIβ is “PKA-dependent phosphorylation at Ser114 was increased”.
As to “RQIKIWFQNRRMKWKK-AAGAGSGAVAFKGANGEA [scrambled siP, penetratin-tagged scramble control peptide]”, in [1] (10 μM for 15 min, washout 25 min, maintained through 50 min following HFS, 25 °C, n = 5), the “fEPSP amplitude after HFS (LTP)” value was 0.31 ± 0.03 mV.
On to “Thr69 RIIβ: RIIβ phosphorylated at Thr69 by Cdk5”, for which, in the test with PKA [2], the “effect of Thr69 phosphorylation on inhibition of PKA catalytic activity by RIIβ” value is reported as “did not alter the inhibition of PKA catalytic activity”.
For the compound “RIIβ: Rat recombinant RIIβ, C-terminal 6XHis fusion; PKA regulatory subunit”, in the test with PKA [3], the IC50 (commonly the concentration that gives 50% inhibition) came out at 0.0015 ± 0.0003 µM. In addition, the “maximal stoichiometry of phosphorylation by Cdk5” value in the test on Cdk5 is 0.6 mol PO4/mol of substrate.
Turning to “RQIKIWFQNRRMKWKKAGAAAGGGTPSKGVNFAEE [RIIβ siP]”, half-maximal inhibition in test [4] (IC50) required 7.14 ± 2.28 µM.
With `CNC1(c2ccccc2Cl)CCCCC1=O` (centres unmarked) [ketamine], in the test with rats, the “RIIβ siP effects compared with ketamine in FST” value is “closely mimicked”.
Take `Oc1cc2c(c(Cl)c1O)CCNCC2c1ccccc1` (centres unmarked) [SKF81297]: the “LTP (HFS-induced), D1 agonist” value in test [1] (SKF81297 2 µM, 15 min bath application, #p < 0.05 control vs SKF, n = 7) is listed as “enhanced”.

These data come from PMC9386499, “Integrated regulation of PKA by fast and slow neurotransmission in the nucleus accumbens controls plasticity and stress responses” (The Journal of Biological Chemistry, 2022).
